# Tested on: in vivo rabbit eyes
# Assay: In vivo prevention of PCO after cataract operation in rabbit eyes
# Conditions: bumetanide and hyperosmotic NaCl
# Experimental: The experimental group includes sixteen rabbit eyes and the control group includes four rabbit eyes. A sham cataract operation is performed on the control animals. The therapy is introduced to the others.
# The pupil of each rabbit eye is preoperatively dilated with topical G Phenylephrine 10% (Alcon Labs., Inc., China) and G Cyclopentolate 1% (Bausch & Lomb Pharm., Inc., USA) three times in one hour. The rabbits are anesthetized with ketamine hydrochloride (5 mg kg-1) and xylazine hydrochloride (2 mg kg-1) and placed on an operating table. A topical anesthetic (Dieaine hydrochloride 1%) is used every five minutes on two occasions. A wire lid speculum is placed to hold the eyelids open.
# A 3.2 mm scleral tunnel incision into the eye is formed at the temporal limbus. The anterior chamber is maintained with viscoelastic substances and a 4-5 mm diameter continuous curvilinear capsularhexis (CCC) is made on the anterior surface of the lens to open its bag. The treatment solution is first introduced in the LECs by hydrodissection. This ensures that the treatment fluid immediately reaches under the entire anterior capsule/LECs. This process allows for (i) separation of the lens cortex from the capsule and lens epithelium, making removal of the lens cortex easier at a later stage of the operation and (ii) the LECs to be exposed to the treatment for enough time (more than five minutes in total time).
# The crystalline lens is then removed using phacoemulsification (Universal II, Alcon Labs., Inc., China). The remaining cortex is aspirated thoroughly and removed as completely as possible to expose the LECs. The lens capsular bag is then partially filed with viscoelastic material in order to maintain its shape. The viscoelastic material should not cover the LECs when the treatment solution is applied.
# The treatment is spread over the inner surface of the anterior capsular bag (where the LECs attach). The anterior capsular is continuously filled by using a syringe with a bent needle. Care is taken not to over flow the bag. After the treatment solution covered the capsule bag, it is left for five minutes and then removed using a syringe.
# In a few cases, IOLs are inserted. […] At the same time, the incision is enlarged to 6.0 mm and a posterior ocular lens (IOLs) (poly-methyl methacrylate, PMMA) with a 6.5 mm optic is prepared and placed into the capsular bag.
# The wound is closed with or without suture.
# At the completion of the surgical procedure, each rabbit eye receives subconjunctival dexamethasone (0.25 ml) and gentamicin (0.25 ml). Postoperatively, atropine sulphate 1% ophthalmic solution and neomycin sulphate-polymyxin sulphate-dexamethasone ophthalmic ointment are administered twice daily for three weeks.
# The animals are evaluated for three weeks and ten weeks. […] All rabbits are evaluated by slitlamp and scored for ocular responses at 1 day and at 1, 2 and 3 weeks. (See FIG. 17, Table 1.) Three and ten weeks after surgery, the animals are anesthetized using a 2 ml intramuscular injection of 11:1 mixture of ketamine hydrochloride and xylazine 20 mg/ml and then killed with a 2 ml intravenous injection of sodium pentobarbital.
# The eye globes are enucleated (some of them fixed in neutral buffered formalin 10% solution for 24 hours) and are bisected coronally just anterior to the equator. Gross examination is performed to assess. PCO development. Photographs are taken from behind (Miyake-Apple posterior photographic technique) by using a digital camera fitted to an operating microscope (Leica/Wild MZ-8, Vashaw Scientific, Inc.).
# The extent and severity of PCO is scored (see FIG. 17, Table 1) according to methods reported in the literature. The lens capsules are then fixed and evaluated under a microscope (Olumpus, Optical Co. Ltd.) and photographed with a digital camera.
smiles,measurement,setting,value
CCCCNc1cc(C(=O)O)cc(S(N)(=O)=O)c1Oc1ccccc1 [bumetanide],Soemmering's ring,,Some degree of Soemmering's ring forms
same,cell proliferation on the lens anterior capsule,three weeks,not significant cell proliferation
same,development of CPCO and PPCO,three weeks follow up,no CPCO and PPCO develop

# Source: patent US7875270B2, “Treatment solution and method for preventing posterior capsular opacification by selectively inducing detachment and/or death of lens epithelial cells” (Abbott Medical Optics Inc., priority 2002, dated 2011)
